Measurements from US10736859B2, “Eutectic formulations of cyclobenzaprine hydrochloride and amitriptyline hydrochloride” (Tonix Pharma Holdings Limited, priority 2013, dated 2020).
“Also recorded” adds a separate entry of the source. Each block holds one compound with its values, some of them ahead of it.

Experiments:
Type in all cases: physicochemical
[1] = DSC, FT-IR/ATR and XRPD compatibility of Cyclobenzaprine HCl with additional excipients, mixed (A) and milled (B) 1:1 mixtures (Example 2); details: for Interactions between Cyclobenzaprine HCl and excipients, Mixture 1:1 (mixed): mixture A, mechanical mixing only; for Interactions between Cyclobenzaprine HCl and excipients, Mixture 1:1 (mixed) / Interactions between Cyclobenzaprine HCl and excipients, Mixture 1:1 (milled): DSC; for Interactions between Cyclobenzaprine HCl and excipients, Mixture 1:1 (milled): mixture B, ground in agate mortar
Method: As described above, thermal analytical techniques were further used to assess the compatibility of a drug product (tablet) containing Cyclobenzaprine HCl (API). The compatibility assessment was carried out between the API and additional excipients in a 1:1 ratio. The 1:1 API-excipient mixtures were formed in two different ways: first, by mixing only, and second, by strong milling in an agate mortar. The thermal behavior recorded in the two different mixtures were compared with those of the single components. On the basis of thermal events recorded for each component and for the mixtures, the analyses were carried out by investigating the meanings of the peaks recorded by differential scanning calorimetry (DSC) in mixtures between the API and the excipients. Furthermore, in order to define the nature of the interaction, the Fourier Transformate Infra Red Spectroscopy with Total Attenuated Reflectance (FT-IR/ATR) and X-ray powder diffraction (XRPD) of some samples (API, excipient, and mixed and milled mixtures) was carried out and compared.
Aliquots of API and each excipient were weighed in a ratio of 1:1 and ground in an agate mortar. Then, the homogeneous mixtures were analyzed. These sample mixtures were labeled “B”, while the mechanical-only mixtures were labeled “A.”
(§1) The DSC heating curves were obtained by TA 821 DSC Mettler instrument under the following conditions: • Heating rate: 10° C./min • Ambient: Nitrogen 30 mL/min • Sample holder: normal open aluminum pan • Temperature range: from 25° C. to 250° C. • Instrument calibration: Indium sample purity 99.999% Fourier Transformate Infra Red Spectroscopy with Total Attenuated Reflectance (FT-IR/ATR)
The FT-IR spectra were collected with a Perkin Elmer spectrum Two instrument with air as background and 4 cm^−1 resolution.
X-ray powder diffraction (XRPD) tests were performed with the ULTIMA IV instrument (Rigaku), laying the sample on a static sample holder. The X-ray focusing slit has a variable width, interlocked with the q value. The X-ray tube has a Copper target, with a current intensity of 40 mA and a voltage of 40 kV. Radiation was generated by the Cockcroft-Walton method, and was constituted by Kα1 (1.540562 Å) and Kα2 (1.544398 Å). The analytical conditions were: • Fixed Time; sampling width 0.02 deg, scanning rate 1.3 s/step, 2 q range 3.35 deg and sample holder; amorphous glass equiangular 9200/2G, 0.2 mm deep. The sample was pressed with a glass plate.

[2] = DSC compatibility of Amitriptyline HCl with excipients, 1:1 milled mixtures (Example 4); details: Amitriptyline HCl + excipient 1:1, milled in agate mortar
Method: Thermal analytical techniques were used to assess the compatibility of the drug product amitriptyline HCl. The compatibility assessment was carried out between the API and the excipients in a 1:1 ratio. On the basis of thermal events recorded for each component and for the mixtures, the analyses were carried out by investigating the peaks recorded by DSC in mixtures between API and the excipients. Differences in thermal profiles between the single compound and the related mixtures were obtained after milling the products in an agate mortar.
DSC was performed substantially as described in Examples 1 and 2. The following raw materials were used: • Amitriptyline HCl • Sodium stearyl fumarate • Stearic acid • Glycerol dibehenate • Magnesium stearate • Pearlitol flash • Pearlitol 200 SO/Mannitol • Unipure DW/Com starch pregelatinized • Crospovidone-Kollidon CL • Silicon Colloidal/Aerosil 200 • Sodium phosphate dibasic • Sodium bicarbonate • Sodium carbonate • Sodium Phosphate dodecahydrate • Sodium Phosphate anhydrous.

[3] = DSC compatibility of Cyclobenzaprine HCl (API) with excipients, milled mixtures (Example 1); details: for Excipient reactions with API, Mixture 1:1: Cyclobenzaprine HCl + excipient 1:1, ground in agate mortar; for Excipient reactions with API, Mixture in formulation ratio: Cyclobenzaprine HCl + excipient in formulation ratio
Method: Thermal analytical techniques were used to assess the compatibility of a drug product (tablet) containing Cyclobenzaprine HCl (API). The compatibility assessment was carried out between the API and a number of possible excipients in a 1:1 ratio. Based on the thermal events recorded for each component and for the mixtures, the analyses were carried out by investigating the peaks recorded by differential scanning calorimetry (DSC) in mixture between API and the excipients. Differences in thermal profiles between the single compound and the related mixture obtained after milling the products in an agate mortar were evaluated. Stability and compatibility also were also assessed on the final drug product after stress conditions at 40° C. and 50° C. for one month.
A “formulation ratio” mixture was made with the following composition: 2.40 mg Cyclobenzaprine HCl, 31.55 mg Mannitol and Maize starch, 2.00 Crospovidone, 0.50 mg colloidal silica, 0.050 mg Sodium Stearyl Fumarate, and 1.05 Potassium hydrogen phosphate.
Aliquots of API and each excipient were weighed in a ratio of 1:1 (unless specified otherwise) and ground in an agate mortar. The homogeneous mixtures then were analyzed.
as §1, with “with a” for “by”, “99.999%” for “99.999% Fourier Transformate Infra Red Spectroscopy with Total Attenuated Reflectance (FT-IR/ATR)”

[4] = listed as sodium phosphate anhydrous
[5] = listed as sodium phosphate dihydrate, Sodium phosphate dihydrate
[6] = listed as Sodium Stearyl fumarate, fumarate
[7] = listed as Trisodium Citrate anhydrous
[8] = listed as trisodium citrate dihydrate, citrate dihydrate

Compound: O=P([O-])([O-])O.[Na+].[Na+] [Di Sodium phosphate anhydrous]
- Interactions between Cyclobenzaprine HCl and excipients, Mixture 1:1 (mixed) [1]: Low chemical
- Interactions between Cyclobenzaprine HCl and excipients, Mixture 1:1 (mixed) [1, 4]: physical interaction
- Interactions between Cyclobenzaprine HCl and excipients, Mixture 1:1 (milled) [1]: Low chemical
- Interactions between Cyclobenzaprine HCl and excipients, Mixture 1:1 (milled) [1, 4]: physical interaction
- Interactions between API and excipients, Mixture in formulation (1:1 ratio) ([2]; listed as Sodium phosphate anhydrous): No physical interaction

Compound: O.O.O=P([O-])([O-])O.[Na+].[Na+] [Di Sodium phosphate di hydrate, Di Sodium phosphate dihydrate]
- Interactions between Cyclobenzaprine HCl and excipients, Mixture 1:1 (mixed) ([1]; Sodium phosphate dihydrate): Chemical
- Interactions between Cyclobenzaprine HCl and excipients, Mixture 1:1 (mixed) [1, 5]: a physical interaction and partial solubilization
- Interactions between Cyclobenzaprine HCl and excipients, Mixture 1:1 (milled) ([1]; Sodium phosphate dihydrate): Chemical
- Interactions between Cyclobenzaprine HCl and excipients, Mixture 1:1 (milled) [1, 5]: physical interaction

Compound: O.O.O.O.O.O.O.O=P([O-])([O-])O.[Na+].[Na+] [Di Sodium phosphate heptahydrate]
- Interactions between Cyclobenzaprine HCl and excipients, Mixture 1:1 (mixed) [1]: Chemical
- Interactions between Cyclobenzaprine HCl and excipients, Mixture 1:1 (milled) [1]: Chemical

- Interactions between API and excipients, Mixture in formulation (1:1 ratio) [2]: No interaction
- Interactions between API and excipients, Mixture in formulation (1:1 ratio) ([2]; listed as glycerol dibehenate): small physical interaction
Compound: CCCCCCCCCCCCCCCCCCCCCC(=O)OCC(CO)OC(=O)CCCCCCCCCCCCCCCCCCCCC (centres unmarked) [Glycerol dibehenate]

Compound: O=P([O-])([O-])O.[K+].[K+] [Potassium phosphate dibasic, dipotassium hydrogen phosphate]
- Excipient reactions with API, Mixture 1:1 [3]: Acid - base interaction
- Excipient reactions with API, Mixture 1:1 ([3]; listed as Potassium phosphate bibasic): chemical interaction (acid-base)
- Excipient reactions with API, Mixture in formulation ratio [3]: Low chemical
- Excipient reactions with API, Mixture in formulation ratio ([3]; listed as K2HPO4): small interaction

Compound: O=C([O-])[O-].[Na+].[Na+] [Sodium carbonate]
- Interactions between API and excipients, Mixture in formulation (1:1 ratio) [2]: small physical interaction; also recorded: No interaction

Compound: O=P([O-])([O-])O.[Na+].[Na+] [Sodium phosphate dibasic]
- Interactions between API and excipients, Mixture in formulation (1:1 ratio) [2]: Physical interaction

- Excipient reactions with API, Mixture 1:1 ([3]; fumarate): Physical interaction
- Excipient reactions with API, Mixture 1:1 [3, 6]: physical interaction
- Excipient reactions with API, Mixture in formulation ratio ([3]; fumarate): No interaction
- Excipient reactions with API, Mixture in formulation ratio [3, 6]: small physical interaction
- Interactions between API and excipients, Mixture in formulation (1:1 ratio) ([2]; fumarate): Physical interaction
- Interactions between API and excipients, Mixture in formulation (1:1 ratio) [2, 6]: physical interaction
Compound: CCCCCCCCCCCCCCCCCCOC(=O)/C=C/C(=O)[O-].[Na+] [Sodium stearyl fumarate]

- Interactions between Cyclobenzaprine HCl and excipients, Mixture 1:1 (mixed) [1]: Chemical
- Interactions between Cyclobenzaprine HCl and excipients, Mixture 1:1 (milled) [1]: Chemical
Compound: OC[C@@H](O)[C@@H](O)[C@H](O)[C@@H](O)CO [Sorbitol]
- Interactions between Cyclobenzaprine HCl and excipients, Mixture 1:1 (mixed) ([1]; listed as sorbitol): interaction was observed, due to the solubilization of API by sorbitol
- Interactions between Cyclobenzaprine HCl and excipients, Mixture 1:1 (milled) ([1]; listed as sorbitol): interaction was observed, due to the solubilization of API by sorbitol

Compound: CCCCCCCCCCCCCCCCCC(=O)O [Stearic acid]
- Interactions between API and excipients, Mixture in formulation (1:1 ratio) [2]: small physical interaction; also recorded: No interaction

Compound: O=C([O-])CC(O)(CC(=O)[O-])C(=O)[O-].[Na+].[Na+].[Na+] [Tri Sodium Citrate anhydrous, Trisodium citrate anhydrous]
- Chemical acid-base reaction by FT-IR/ATR ([1]; mixture A 1:1 with Cyclobenzaprine HCl, room temperature, chlorohydrate band 3000-2000 cm-1): no chemical acid-base reaction had occurred
- Interactions between Cyclobenzaprine HCl and excipients, Mixture 1:1 (mixed) [1]: Physical
- Interactions between Cyclobenzaprine HCl and excipients, Mixture 1:1 (mixed) [1, 7]: physical complex melting at a lower temperature
- Interactions between Cyclobenzaprine HCl and excipients, Mixture 1:1 (milled) [1]: Physical
- Interactions between Cyclobenzaprine HCl and excipients, Mixture 1:1 (milled) [1, 7]: physical complex melting at lower temperature

Compound: O.O.O=C([O-])CC(O)(CC(=O)[O-])C(=O)[O-].[Na+].[Na+].[Na+] [Trisodium citrate dihydrate]
- Interactions between Cyclobenzaprine HCl and excipients, Mixture 1:1 (mixed) ([1]; citrate dihydrate): Chemical
- Interactions between Cyclobenzaprine HCl and excipients, Mixture 1:1 (mixed) [1, 8]: physico-chemical interaction
- Interactions between Cyclobenzaprine HCl and excipients, Mixture 1:1 (milled) ([1]; citrate dihydrate): Chemical
- Interactions between Cyclobenzaprine HCl and excipients, Mixture 1:1 (milled) [1, 8]: physico-chemical interaction

Compound: Magnesium stearate
- Interactions between API and excipients, Mixture in formulation (1:1 ratio) [2]: small physical interaction

Compound: Sodium Phosphate dodecahydrate
- Interactions between API and excipients, Mixture in formulation (1:1 ratio) [2]: physical/chemical interaction
